The NIST ThermoML archive (doi:10.1021/je8003723)

Key:
[1] = 308.15 K, 101.3 kPa, Liquid; for viscosity: Capillary tube (Ostwald / Ubbelohde) method; for mass density: Pycnometric method; for speed of sound: Sing-around technique in a fixed-path interferometer
[2] = xn = mol fraction of the nth substance listed; conditions: 308.15 K, 101 kPa, Liquid; for viscosity: Capillary tube (Ostwald / Ubbelohde) method; for mass density: Pycnometric method; for speed of sound: Sing-around technique in a fixed-path interferometer

CC(=O)CC(C)C [4-methylpentan-2-one]
[1]
Conditions | mass density [kg/m3] | speed of sound [m/s] | viscosity [mPa·s]
– | 786.8 | 1150 | 0.455

CC(=O)CC(C)C [4-methylpentan-2-one] + N#CCc1ccccc1
[2], x2 = 0
Conditions | mass density [kg/m3] | speed of sound [m/s] | viscosity [mPa·s]
– | 786.8 | 1150 | 0.455

N#CCc1ccccc1 [benzeneacetonitrile]
[1]
Conditions | mass density [kg/m3] | speed of sound [m/s] | viscosity [mPa·s]
– | 1003.2 | 1518 | 1.585

N#CCc1ccccc1 [benzeneacetonitrile] + CC(=O)CC(C)C
[2]
Conditions | mass density [kg/m3] | speed of sound [m/s] | viscosity [mPa·s]
x1 = 0.0271 | 792.5 | 1166 | 0.475
x1 = 0.16 | 823.3 | 1212 | 0.573
x1 = 0.2926 | 852.2 | 1261 | 0.679
x1 = 0.3931 | 874.6 | 1298 | 0.775
x1 = 0.5217 | 902.8 | 1340 | 0.91
x1 = 0.6436 | 928.9 | 1382 | 1.049
x1 = 0.7407 | 949.8 | 1414 | 1.164
x1 = 0.8599 | 976 | 1459 | 1.338
x1 = 0.9758 | 998.1 | 1498 | 1.523
x1 = 1 | 1003.2 | 1518 | 1.585

N#CCc1ccccc1 [benzeneacetonitrile] + CCC(=O)CC
[2]
Conditions | mass density [kg/m3] | speed of sound [m/s] | viscosity [mPa·s]
x1 = 0.0235 | 806 | 1199 | 0.388
x1 = 0.1407 | 835.4 | 1237 | 0.474
x1 = 0.2569 | 861.5 | 1278 | 0.567
x1 = 0.358 | 883.3 | 1314 | 0.665
x1 = 0.4803 | 909 | 1354 | 0.79
x1 = 0.6048 | 933.7 | 1397 | 0.936
x1 = 0.6943 | 951.2 | 1421 | 1.064
x1 = 0.8378 | 976.7 | 1471 | 1.281
x1 = 0.9722 | 998.9 | 1496 | 1.528
x1 = 1 | 1003.2 | 1518 | 1.585

N#CCc1ccccc1 [benzeneacetonitrile] + CCC(C)=O
[2]
Conditions | mass density [kg/m3] | speed of sound [m/s] | viscosity [mPa·s]
x1 = 0.0205 | 796.1 | 1167 | 0.334
x1 = 0.1218 | 825.9 | 1208 | 0.412
x1 = 0.2283 | 854 | 1265 | 0.497
x1 = 0.3188 | 876.8 | 1308 | 0.583
x1 = 0.4403 | 905.5 | 1356 | 0.72
x1 = 0.5655 | 931.3 | 1397 | 0.868
x1 = 0.6706 | 950.7 | 1421 | 1.015
x1 = 0.8086 | 974.1 | 1454 | 1.228
x1 = 0.9657 | 998.1 | 1497 | 1.498
x1 = 1 | 1003.2 | 1518 | 1.585

N#CCc1ccccc1 [benzeneacetonitrile] + CCCC(C)=O
[2]
Conditions | mass density [kg/m3] | speed of sound [m/s] | viscosity [mPa·s]
x1 = 0.0221 | 797 | 1189 | 0.41
x1 = 0.1416 | 826.8 | 1228 | 0.495
x1 = 0.2622 | 856 | 1271 | 0.6
x1 = 0.3564 | 877.5 | 1313 | 0.685
x1 = 0.4811 | 904.2 | 1363 | 0.819
x1 = 0.6125 | 931.5 | 1394 | 0.976
x1 = 0.7133 | 950.9 | 1418 | 1.1
x1 = 0.8389 | 974.8 | 1456 | 1.29
x1 = 0.9736 | 998.6 | 1499 | 1.509
x1 = 1 | 1003.2 | 1518 | 1.585

CCC(C)=O [butanone]
[1]
Conditions | mass density [kg/m3] | speed of sound [m/s] | viscosity [mPa·s]
– | 789.2 | 1157 | 0.316

CCC(C)=O [butanone] + N#CCc1ccccc1
[2], x2 = 0
Conditions | mass density [kg/m3] | speed of sound [m/s] | viscosity [mPa·s]
– | 789.2 | 1157 | 0.316

CCCC(C)=O [pentan-2-one]
[1]
Conditions | mass density [kg/m3] | speed of sound [m/s] | viscosity [mPa·s]
– | 790.8 | 1179 | 0.394

CCCC(C)=O [pentan-2-one] + N#CCc1ccccc1
[2], x2 = 0
Conditions | mass density [kg/m3] | speed of sound [m/s] | viscosity [mPa·s]
– | 790.8 | 1179 | 0.394

CCC(=O)CC [pentan-3-one]
[1]
Conditions | mass density [kg/m3] | speed of sound [m/s] | viscosity [mPa·s]
– | 800 | 1185 | 0.371

CCC(=O)CC [pentan-3-one] + N#CCc1ccccc1
[2], x2 = 0
Conditions | mass density [kg/m3] | speed of sound [m/s] | viscosity [mPa·s]
– | 800 | 1185 | 0.371
